Patent US20020160968A1, “Inhibitors of cellular niacinamide mononucleotide formation and their use in cancer therapy” (Klinge Pharma GmbH, priority 1999, published 2002)

What was measured:
Type in all cases: cell-based, human
HepG2 cells = test: Cell growth under high-density conditions (SRB assay), delayed cell death (DCD); conditions: Homo sapiens, high density HepG2 cultures
[1] = test system: NAD(P) synthesis from niacinamide in HepG2 cells; test: Determination of NAD(P) synthesis from [14C]niacinamide in HepG2 cells; conditions: for inhibition at 10 µM / activity at 10 µM: Homo sapiens; for inhibition at 10 µM: read-out: Cellular NAD synthesis inhibition [%]; for activity at 10 µM / NAD(P) pmol/10^6 cells / NAD(P) pmol/mg protein: Table 3a, compound 10^-5 M; for activity at 10 µM: read-out: NAD(P) % of Control; for NAD(P) pmol/10^6 cells: 17 hrs pre-incubation, control 302.1; for NAD(P) pmol/mg protein: control 186.4
Text: The effect of the compounds on the synthesis of NAD(P) starting from niacinamide was investigated using for example the tumor cell line HepG2 according to the technique described in the experimental part below.
The inhibition of the NAD(P) synthesis from niacinamide by these compounds was investigated in HepG2 cells as described in the section “Material and Methods”. The compounds of Table 3 a were used at a concentration of 10^−5 M. The compounds of Table 3 b were used at concentrations of at least 10^−5 M, except for Doxorubicin where the concentration was 0.3×10^−5 M. As a control, vehicle treated or untreated cells were used.
In these experiments, a pre-incubation period of 17 hrs with the compounds was used, but it turned out that the pre-incubations period could be shortened, for example to 2 hrs, or skipped completely without affecting the inhibition profile. […] Similar results were obtained with the other specific compounds.
For the detection of specific inhibitors of niacinamide mononucleotide formation the following screening assay is especially useful which comprises the following steps: incubating cultured cells selected from HepG2 cells, U-87 MG cells, MCF-7 M1 cells, Caki-1 cells, HL-60 cells, PC3 cells, U-373 MG cells, A549 cells and KG-1a cells in the presence of [^14C]niacinamide and a compound to be tested for its activity to inhibit the cellular formation of niacinamide mononucleotide; effecting lysis of the cells; isolating and separating the [^14C]-labeled compounds and measuring the amount of formed labeled niacinamide mononucleotide, NAD and NADP. More concretely, cultured cells are seeded in a defined density in culture dishes, followed by incubation in the presence of a test compound and by the addition of [^14C]niacinamide for about 0.1 to 6 hrs. The cells are then lysed with perchloric acid and the resulting extract is neutralized. Finally, the [^14C]-labeled compounds are separated by thin-layer chromatography on cellulose matrices followed by UV detection and autoradiography. Non-radioactive niacinamide derivatives are used as standards. This assay allows simple and effective screening and selection of the compounds according to the invention.
Determination of NAD(P) Synthesis from [^14C]Niacinamide
The cells were detached from 75 cm^2 flasks by removing the growth medium and adding 3 ml trypsin/EDTA solution to each flask. After about 5 minutes incubation at 37° C., when the cells were detached from the surface of the dishes, trypsinization was stopped by adding 3 ml Richter's IMEM-ZO medium containing 10% FCS. The cells were suspended by repeated pipetting. For predilution, an aliquot of 20 μl was added to 10 ml Casyton isotonic solution (No. 043-90037P, Schärfe System, Reutlingen, Germany) using a Sysmex Auto Dilutor Type AD-260 (Toa, Medical Electronics Co. Ltd., Kobe, Japan). The cell number was determined by electronic cell volume measurements and counting with a CASY 1 Cell Counter+Analyzer System, Model TTC (Schärfe System, Reutlingen, Germany) equipped with a 60 μm capillary. Following dilution in IMEM-ZO containing 10% FCS, the cells were finally seeded at a density of 4×10^6/10 ml per sample in Ø 10 cm tissue culture dishes (Greiner, Frickenhausen, Germany) and incubated at 37° C. in a humidified atmosphere of 5% CO2 in air.
After one day, when the cells were adherent to the dishes, the cultures were replenished with IMEM-ZO containing 5% FCS plus the test compound or the vehicle. […] The cells were then incubated at 37° C. for 17 hours in a humidified atmosphere of 5% CO2 in air. This preincubation period is not necessary to achieve a distinct inhibitory action of the compounds and can be shortened for example to 2 or 0 hours. After this period of time, the medium was again discarded and 4 ml HEPES-buffered IMEM-ZO containing the test compound or the vehicle and 0.5 μCi/ml [^14C]niacinamide were added to each culture for an additional 5 hours at 37° C. and 100% humidity. […]

Hep G2 cells = test: Nicotinamide Reversibility Assay / cell growth inhibition of Hep G2 cells (SRB, six days); conditions: for IC50: Homo sapiens, HepG2, 144 h, six days of compound incubation, SRB, read-out: Cell growth inhibition IC50-values [μM] Hep G2
Protocol: Nicotinamide Reversibility Assay
Hep G2 cells derived from a human liver carcinoma were plated at a density of 20,000 cells/ml in 12-well plastic dishes. Cultivation occurred in Richters IMEM-ZO nutrient medium with 5% fetal calf serum (FCS) in a tissue culture incubator with a gas mixture of 5% CO2 and 95% air at a temperature of 37° C. One day after plating, the culture medium was aspirated from the cells and replaced by fresh medium which contained the respective concentrations of the test compounds and where applicable of the nicotinamide. For the individual concentrations and the controls without test compounds, three-fold batches were done for each. Three days after the beginning of treatment, the medium was again renewed with the test compounds and where applicable the nicotinamide. After six days of compound incubation, the test was ended and the protein amount in the individual wells was determined with the sulforhodamin-B-method (according. to P. Skehan et al.: New Colorimetric Cytotoxicity Assay for Anticancer-Drug Screening. J. Natl. Cancer Inst. 82: 1107-1112, 1990). The IC50-values were taken from the dose-response curves and given as a comparative measurement for the activity of the test compounds.

[2] = minimum concentration which, despite initial growth, induced cell death below the number of initially seeded cells, Table 2

How did the minimal effective concentration (HepG2 cells; Table 5) turn out when `Cn1c(CCNC(=O)/C=C/c2cccnc2)ccc1CN1CCN(C(c2ccccc2)c2ccccc2)CC1` [Compound K22350, N-{2-[5-(4-benzhydryl-piperazine-1-yl-methyl)-1-methyl-1H-pyrrole-2-yl]-ethyl}-3-pyridine-3-yl-acrylamide] was run?
The minimal effective concentration was 1 µM.

What about the minimal effective concentration (HepG2 cells; [2]) of the same molecule?
Its minimal effective concentration is 1 µM.

And the inhibition at 10 µM [1]?
Its inhibition at 10 µM is 99%.

What about the activity at 10 µM [1] of the same molecule?
The activity at 10 µM was 0.9%.

What about the “NAD(P) pmol/10^6 cells” value [1] of the same molecule?
The value was 2.7 pmol/10^6 cells.

And the “NAD(P) pmol/mg protein” value [1]?
The value was 1.7 pmol/mg protein.

And the IC50 (Hep G2 cells; Hep G2)?
The IC50 was 0.7 µM.

How did the minimal effective concentration (HepG2 cells; Table 5) turn out when `O=C(NCCCCC1CCN(S(=O)(=O)c2ccc3ccccc3c2)CC1)Nc1cccnc1` [Compound K22365, 1-{4-[1-(naphthalene-2-sulfonyl)-piperidine-4-yl)-butyl}-3-pyridine-3-yl-urea] was run?
The minimal effective concentration was 3 µM.

What about the minimal effective concentration (HepG2 cells; [2]) of the same molecule?
The minimal effective concentration was 3 µM.

And the inhibition at 10 µM [1]?
The inhibition at 10 µM was 92%.

What about the IC50 (Hep G2 cells; Hep G2) of the same molecule?
Its IC50 is 0.6 µM.

Which minimal effective concentration (HepG2 cells; Table 5) does the source give for `O=C(NCCCCC1CCN(C(=O)N2c3ccccc3CCc3ccccc32)CC1)Nc1cccnc1` [Compound K22387, 1-{4-[1-(1,11-dihydro-dibenzene[b,f]azepine-5-carbonyl)-piperidine-4-yl]-butyl}-3-pyridine-3-yl-urea] here?
Its minimal effective concentration is 0.01 µM.

What about the minimal effective concentration (HepG2 cells; [2]) of the same molecule?
The minimal effective concentration was 0.01 µM.

What about the inhibition at 10 µM [1] of the same molecule?
The inhibition at 10 µM was 99%.

What about the activity at 10 µM [1] of the same molecule?
The activity at 10 µM was 0.9%.

What about the “NAD(P) pmol/10^6 cells” value [1] of the same molecule?
The value was 2.6 pmol/10^6 cells.

What about the “NAD(P) pmol/mg protein” value [1] of the same molecule?
Its value is 1.6 pmol/mg protein.

And the “Influence of the addition of nicotinamide on the action on cell growth (FIGS. 20 to 27)” value (Hep G2 cells; Hep G2)?
Its value is “can be antagonized”.

What about the “Reversal by Niacinamide” value (Hep G2 cells; Hep G2 cell growth inhibition with added nicotinamide) of the same molecule?
Its value is “yes”.

And the IC50 (Hep G2 cells; Hep G2)?
Its IC50 is 0.002 µM.

Which results are given for `NC(Cc1ccc(O)c(N=Nc2ccccc2C(=O)N2CCC(CCCCNC(=O)/C=C/c3cccnc3)CC2)c1)C(=O)O` (stereo not drawn) [Compound K22408, 2-amino-3-[4-hydroxy-3-(2-{4-[4-(3-pyridine-3-yl-acryloyl-amino)-butyl]-piperidine-1-carbonyl}-phenylazo)-phenyl]-propanoic acid trihydrate]?
minimal effective concentration (HepG2 cells; Table 5): 1 µM; minimal effective concentration (HepG2 cells; [2]): 1 µM; inhibition at 10 µM [1]: 98%; activity at 10 µM [1]: 1.6%; NAD(P) pmol/10^6 cells [1]: 4.9 pmol/10^6 cells; NAD(P) pmol/mg protein [1]: 3.0 pmol/mg protein; IC50 (Hep G2 cells; Hep G2): 0.2 µM
